Assay results from US20100267561A1, “HERBICIDAL PYRIDAZINONE DERIVATIVES” (priority 2007, published 2010).

Legend:
Format in all cases: in vivo
[1] = system: canarygrass (Phalaris minor); assay: Test C pre-/postemergence plant response; conditions: Preemergence
Excerpt: (§1) Seeds of plant species selected from annual bluegrass (Poa annua), blackgrass (Alopecurus myosuroides), canola (Brassica rapa), downy bromegrass (Bromus tectorum), green foxtail (Setaria viridis), Italian ryegrass (Lolium multiflorum), canarygrass (Phalaris minor), pigweed (Amaranthus retroflexus), spring barley (Hordeum vulgare), spring wheat (Triticum aestivum), wild mustard (Sinapis arvensis), wild oat (Avena fatua), windgrass (Apera spica-venti), winter barley (Hordeum vulgare), and winter wheat (Triticum aestivum) were planted and treated preemergence with test chemicals formulated in a non-phytotoxic solvent mixture which included a surfactant. At the same time, plants selected from these crop and weed species were treated with postemergence applications of some of the test chemicals formulated in the same manner. Plants ranged in height from 2 to 18 cm (1- to 4-leaf stage) for postemergence treatments.
(§2) Treated plants and controls were maintained in a controlled growth environment for 15 to 25 days after which time all species were compared to controls and visually evaluated. Plant response ratings, summarized in Table C, are based on a scale of 0 to 100 where 0 is no effect and 100 is complete control. A dash (-) response means no test result.

[2] = system: blackgrass (Alopecurus myosuroides); assay: Test C pre-/postemergence plant response
Excerpt: as §1, §2

[3] = system: annual bluegrass (Poa annua); assay: Test C pre-/postemergence plant response
Excerpt: as §1, §2

[4] = system: Italian ryegrass (Lolium multiflorum); assay: Test C pre-/postemergence plant response
Excerpt: as §1, §2

[5] = system: wild mustard (Sinapis arvensis); assay: Test C pre-/postemergence plant response
Excerpt: as §1, §2

[6] = system: downy bromegrass (Bromus tectorum); assay: Test C pre-/postemergence plant response
Excerpt: as §1, §2

[7] = system: windgrass (Apera spica-venti); assay: Test C pre-/postemergence plant response
Excerpt: as §1, §2

[8] = system: winter wheat (Triticum aestivum); assay: Test C pre-/postemergence plant response
Excerpt: as §1, §2

wild oat (Avena fatua) = assay: Test C pre-/postemergence plant response
Excerpt: as §1, §2

[9] = system: green foxtail (Setaria viridis); assay: Test C pre-/postemergence plant response
Excerpt: as §1, §2

[10] = system: spring barley (Hordeum vulgare); assay: Test C pre-/postemergence plant response
Excerpt: as §1, §2

[11] = system: winter barley (Hordeum vulgare); assay: Test C pre-/postemergence plant response
Excerpt: as §1, §2

[12] = system: velvetleaf (Abutilon theophrasti); assay: Test A pre-/postemergence plant response
Outline: (§3)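 Soil: loam blended with sand. Formulation: non-phytotoxic solvent mixture plus surfactant, applied as preemergence directed soil spray and as postemergence spray. Scoring: visual, 0 no effect to 100 complete control, roughly 10 days post-treatment in greenhouse.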

[13] = system: giant foxtail (Setaria faberi); assay: Test A pre-/postemergence plant response
Outline: as §3

[14] = system: large crabgrass (Digitaria sanguinalis); assay: Test A pre-/postemergence plant response
Outline: as §3

[15] = Postemergence, 8 g ai/ha, scale 0 to 100, 0 no effect, 100 complete control
[16] = Postemergence, 16 g ai/ha, scale 0 to 100, 0 no effect, 100 complete control
[17] = Postemergence, 31 g ai/ha, scale 0 to 100, 0 no effect, 100 complete control
[18] = Postemergence, 62 g ai/ha, scale 0 to 100, 0 no effect, 100 complete control
[19] = Preemergence, 8 g ai/ha, scale 0 to 100 (0 no effect, 100 complete control)
[20] = Preemergence, 16 g ai/ha, scale 0 to 100 (0 no effect, 100 complete control)
[21] = Preemergence, 31 g ai/ha, scale 0 to 100 (0 no effect, 100 complete control)
[22] = Preemergence, 62 g ai/ha, scale 0 to 100, 0 no effect, 100 complete control
[23] = Postemergence, 125 g ai/ha, 0 to 100 scale, 0 no effect, 100 complete control
[24] = Postemergence, 500 g ai/ha, 0 to 100 scale, 0 no effect, 100 complete control
[25] = Preemergence, 125 g ai/ha, 0 to 100 scale (0 no effect, 100 complete control)
[26] = Preemergence, 500 g ai/ha, 0 to 100 scale (0 no effect, 100 complete control)

Cc1nn(C)c(=O)c(-n2nc(-c3ccc(Cl)cc3)cc2C)c1O [Compound 15]
60: Plant response rating, Bluegrass [3, 20] | Plant response rating, Foxtail, Green [9, 19] | Plant response rating, Barley, Winter [11, 22]
100: Plant response rating, Blackgrass [2, 18] | Plant response rating, Ryegrass, Italian [4, 16] | Plant response rating, Ryegrass, Italian [4, 17] | Plant response rating, Ryegrass, Italian [4, 18] | Plant response rating, Ryegrass, Italian [4, 20] | Plant response rating, Ryegrass, Italian [4, 21] | Plant response rating, Ryegrass, Italian [4, 22] | Plant response rating, Foxtail, Green [9, 21] | Plant response rating, Foxtail, Green [9, 22] | Plant response rating, Foxtail, Giant [13, 24] | Plant response rating, Foxtail, Giant [13, 26] | Plant response rating, Crabgrass, Large [14, 24] | Plant response rating, Crabgrass, Large [14, 26]
20: Plant response rating, Canarygrass ([1]; 8 g ai/ha, scale 0 to 100 (0 no effect, 100 complete control)) | Plant response rating, Mustard, Wild [5, 18] | Plant response rating, Bromegrass, Downy [6, 17] | Plant response rating, Bromegrass, Downy [6, 20] | Plant response rating, Wheat, Winter [8, 21] | Plant response rating, Barley, Winter [11, 20]
25: Plant response rating, Bluegrass [3, 16] | Plant response rating, Windgrass [7, 20] | Plant response rating, Wheat, Winter [8, 18] | Plant response rating, Wheat, Winter [8, 22] | Plant response rating, Oat, Wild (wild oat (Avena fatua); [16])
90: Plant response rating, Bluegrass [3, 22] | Plant response rating, Oat, Wild (wild oat (Avena fatua); [17]) | Plant response rating, Oat, Wild (wild oat (Avena fatua); [18]) | Plant response rating, Foxtail, Green [9, 15] | Plant response rating, Barley, Winter [11, 18] | Plant response rating, Foxtail, Giant [13, 23] | Plant response rating, Foxtail, Giant [13, 25] | Plant response rating, Crabgrass, Large [14, 23]
70: Plant response rating, Canarygrass ([1]; 16 g ai/ha, scale 0 to 100 (0 no effect, 100 complete control)) | Plant response rating, Blackgrass [2, 19] | Plant response rating, Bromegrass, Downy [6, 22]
10: Plant response rating, Barley, Winter [11, 17]
15: Plant response rating, Ryegrass, Italian [4, 19] | Plant response rating, Bromegrass, Downy [6, 16]
35: Plant response rating, Bromegrass, Downy [6, 21]
30: Plant response rating, Bromegrass, Downy [6, 18]
98: Plant response rating, Blackgrass [2, 17] | Plant response rating, Blackgrass [2, 22] | Plant response rating, Foxtail, Green [9, 17] | Plant response rating, Foxtail, Green [9, 18] | Plant response rating, Foxtail, Green [9, 20]
75: Plant response rating, Blackgrass [2, 15] | Plant response rating, Bluegrass [3, 21] | Plant response rating, Windgrass [7, 21]
80: Plant response rating, Canarygrass ([1]; 31 g ai/ha, scale 0 to 100 (0 no effect, 100 complete control)) | Plant response rating, Blackgrass [2, 20] | Plant response rating, Crabgrass, Large [14, 25]
50: Plant response rating, Bluegrass [3, 18] | Plant response rating, Ryegrass, Italian [4, 15] | Plant response rating, Oat, Wild (wild oat (Avena fatua); [21]) | Plant response rating, Barley, Spring [10, 18] | Plant response rating, Barley, Winter [11, 21]
65: Plant response rating, Oat, Wild (wild oat (Avena fatua); [22]) | Plant response rating, Barley, Spring [10, 22]
95: Plant response rating, Canarygrass ([1]; 62 g ai/ha, scale 0 to 100, 0 no effect, 100 complete control) | Plant response rating, Blackgrass [2, 16] | Plant response rating, Blackgrass [2, 21] | Plant response rating, Windgrass [7, 22] | Plant response rating, Foxtail, Green [9, 16]
0: Plant response rating, Bluegrass [3, 15] | Plant response rating, Mustard, Wild [5, 15] | Plant response rating, Mustard, Wild [5, 16] | Plant response rating, Mustard, Wild [5, 17] | Plant response rating, Mustard, Wild [5, 19] | Plant response rating, Mustard, Wild [5, 20] | Plant response rating, Mustard, Wild [5, 21] | Plant response rating, Bromegrass, Downy [6, 15] | Plant response rating, Bromegrass, Downy [6, 19] | Plant response rating, Windgrass [7, 15] | Plant response rating, Windgrass [7, 16] | Plant response rating, Windgrass [7, 17] | Plant response rating, Wheat, Winter [8, 15] | Plant response rating, Wheat, Winter [8, 16] | Plant response rating, Wheat, Winter [8, 17] | Plant response rating, Wheat, Winter [8, 19] | Plant response rating, Wheat, Winter [8, 20] | Plant response rating, Oat, Wild (wild oat (Avena fatua); [15]) | Plant response rating, Oat, Wild (wild oat (Avena fatua); [19]) | Plant response rating, Barley, Spring [10, 15] | Plant response rating, Barley, Spring [10, 16] | Plant response rating, Barley, Spring [10, 17] | Plant response rating, Barley, Spring [10, 19] | Plant response rating, Barley, Spring [10, 20] | Plant response rating, Barley, Winter [11, 15] | Plant response rating, Barley, Winter [11, 16] | Plant response rating, Barley, Winter [11, 19] | Plant response rating, Velvetleaf [12, 23] | Plant response rating, Velvetleaf [12, 24] | Plant response rating, Velvetleaf [12, 25] | Plant response rating, Velvetleaf [12, 26]
40: Plant response rating, Bluegrass [3, 17] | Plant response rating, Bluegrass [3, 19] | Plant response rating, Windgrass [7, 18] | Plant response rating, Barley, Spring [10, 21]
